{"source": "patent US8779779B2", "about": "“On-chip cell migration detection” (CapitalBio Corporation, priority 2008, dated 2014)", "tested_on": "Vero-E6 cells", "assay": "Real time inhibition assay of cell migration (on-chip SAM wound edge with cellular impedance sensing)", "assay_type": "cell-based", "experimental": "For at least one of the electrodes, the surface is treated with a chemical coating that inhibits cell adhesion onto the electrode (302). This generates a chemical coat-modified surface on the electrodes. The chemical coating maintains contact with the surface of the electrodes until desorbed by application of an electrical signal capable of desorbing the coating. The chemical coating can be applied by contacting the electrodes with a solution or suspension of coating material in a carrier, or by contacting the electrode with the coating material without a carrier. A background impedance value is measured in absence of cells (304). After measuring the background impedance (Z0), target cells are added to the device (306). A layer of cells is allowed to grow on the surface of the device (308). […] As a result, all the cells grow on the surface of the SiO2 insulation substrate forming a cell monolayer. After incubation, wound edges are formed automatically on the device. Once the cells have grown over the surfaces, an electrical signal is applied to the electrodes, which causes the chemical coating to desorb from the electrodes (310). This provides a cell-free electrode surface surrounded by cells growing on the adjacent insulation. The cell impedance (Zx) is monitored in real-time as the cells grow or migrate across the electrodes (312). Cells growing on the electrodes can cause measurable changes in the electrical properties of the circuit, e.g., impedance; consequently, the rate of cell migration or spreading can be monitored by monitoring electrical properties of the electrodes. The final impedance data is normalized as Zx/Z0 (314). The normalized impedance data reflects the impedance variation induced by the attachment of the cells.\nFor illustrative purposes, the process 300 is described using an example protocol for monitoring cell migration. An example protocol includes preparing an impedance measuring device (e.g., device 100) for impedance measurement by sterilizing the device. After sterilization, (e.g., in 75% ethanol for 20 minutes and then exposure to UV irradiation for another 30 minutes), a thiol compound is added to the microfluidic cavities. Thiol compound (HS(CH2)11(OCH2CH2)6OH (abbreviated as “EG6”) is obtained from Sigma-Aldrich (St. Louis, Mo.). EG6 (1.5 mM in ethanol) can be added to each microfluidic cavity of the device using a syringe and incubated for 8 hours at room temperature. Then, the microfluidic cavities are washed by ethanol followed by PBS buffer. Before cell seeding, tissue culture media is injected into chambers of the device to read the background impedance value (Z0). […]\nAt the same time, the impedance (Zx) is measured in real-time with a time resolution of 5 minutes, for example. […]"}
{"smiles": "COc1cc2c(c(OC)c1OC)-c1ccc(OC)c(=O)cc1[C@@H](NC(C)=O)CC2", "note": "[colchicine]", "values": [{"measurement": "time point at which the cells heal a wound (t0.1; impedance saturation)", "setting": "0.1 μM colchicine, Vero-E6 cells, control tc=4.2±0.17 h", "result": "4.6 ± 0.19", "unit": "h"}, {"measurement": "time point at which the cells heal a wound (t0.2; impedance saturation)", "setting": "0.2 μM colchicine, Vero-E6 cells, control tc=4.2±0.17 h", "result": "5.1 ± 0.21", "unit": "h"}, {"measurement": "time point at which the cells heal a wound (t0.4; impedance saturation)", "setting": "0.4 μM colchicine, Vero-E6 cells, control tc=4.2±0.17 h", "result": "8.2 ± 0.42", "unit": "h"}, {"measurement": "inhibition effect on Vero-E6 cell migration (average speed AS)", "setting": "0.1, 0.2 and 0.4 μM, AS=R×t^−1, FIG. 7B", "result": "inhibits Vero-E6 cell migration in a drug concentration dependant manner"}]}
